In patent US20040033213A1, “Methods of modulating dendritic cells using adjuvants” (Corixa Corporation, priority 2002, published 2004):

Columns and labels:
Assay type in all cases: cell-based
[1] = system: cultured human DCs + autologous T cells
[2] = system: murine bone marrow derived DCs + D011.10 T cells; experiment: APC function of ova-pulsed, lipid A potentiated murine DCs co-cultured with D011.10 T cells (cytokine ELISA)
Source text: These antigen pulsed, lipid A potentiated cells were then washed thoroughly and titered against ova-specific T cell effector cells in vitro at an APC: T cell ratio titration of 1:1 out to as high as 1:512. The effector T cells in this in vitro assay were the antigen naive, but antigen (ova) specific, MHC restricted I-A^d splenic T cells from transgenic D011.10 mice.
D011.10 TCR-transgenic mice were used in these experiments as donors of antigen specific naive T cells. In their germline DNA these mice contain rearranged TCR-Vα and -Vβ genes that encode a T cell receptor (TCR) specific for the ovalbumin peptide 323-339 bound to IA^d (Balb/c) Class II MHC molecules. The transgenic ova peptide specific TCR can be detected with the KJ1-26 monoclonal antibody (mAb) that binds only to this particular TCR heterodimer. These cells provide a ready source of “normal” antigen (ova)-specific effector T cells. Effective antigen-mediated APC stimulation of those T cells is generally measured by ELISA quantitation of IL-2 or IFN-γ in the culture supernatants of DC+D011.10 T cells after 24-48 hours of incubation.
In one experiment, murine bone marrow derived DCs (6 day cultures) were pulsed with ova (50 μg/ml-5×10^5 cells/ml) and then potentiated overnight with LPS(R595), MPL® immunostimulant-S, RC-527, RC-529 or RC-544 prior to being cultured together with naive D011.10 effector T cells (FIGS. 1-7). The APC function of these DCs as measured by their ability to stimulate IL-2, IFN-γ IL-12 (p70) and IL-12 (p40) secretion in the DC+D011.10 co-culture systems was analyzed. All of the data shown in FIGS. 1-7 was developed from DCs maintained in lipid A induction cultures for either 15 or 38 hours prior to use in the T cell assay.

[3] = system: 6-7 day cultured human dendritic cells; experiment: ELISA of cytokines (IL-12 p40, IL-12 p70, TNF-α) in 22 h induction supernatants of cultured human dendritic cells; conditions: for IL-12 p40 / IL-12 p70 / TNF-α: 22 Hrs
Source text: Recent articles have described how human dendritic cells can be derived in vitro from CD14 positive monocyte precursors in peripheral blood. A “buffy coat” preparation can now be commonly obtained from a unit of normal human peripheral blood from a blood bank on request. The leukocyte fraction was harvested from this buffy coat preparation using standard ficoll centrifugation techniques. Subsequently, the leukocyte fraction was labeled with anti-CD 14 antibody coupled to magnetic microbeads. This preparation was then passed over a magnet (Miltanyi Biotech) and CD14 positive monocytes were collected. These CD14 positive monocyte precursors were then cultured for 5-7 days in vitro (5×10^5 cells/ml) with GM-CSF (20 ng/ml) for the duration of the culture. […] After the 24 hour in vitro stimulation culture, cells were washed twice and stained with a panel of monoclonal antibodies specific for different cell surface activation and co-receptor molecules found on mature, activated DCs.
Supernatants from DCs stimulated with LPS, MPL® immunostimulant-S, RC-527, RC-529, and RC-544 were collected and tested by ELISA analysis for cytokines.

[4] = system: Human d7 Cultured Dendritic Cells; experiment: Flow cytometry phenotype analysis of human d7 cultured dendritic cells after 24 h stimulation; conditions: for HLA-DR MFI: 7 day DCs, 24 h stimulation
[5] = Exp. # 092398, Day 7, LPS 10 ng/ml, others 100 ng/ml
[6] = Exp. # 093098, LPS 10 ng/ml, others 100 ng/ml
[7] = Exp. 091698, 24 h, LPS 10 ng/ml, others 100 ng/ml
[8] = Exp. 092398, 24 h, LPS 10 ng/ml, others 100 ng/ml
[9] = Exp. 093098, 24 h, LPS 10 ng/ml, others 100 ng/ml

What does the source list for `CCCCCCCCCCCC(=O)OC(CCCCCCCCCCC)CC(=O)NC(CO)COC1OC(CO)C(OP(=O)(O)O)C(OC(=O)CC(CCCCCCCCCCC)OC(=O)CCCCCCCCCCC)C1NC(=O)CC(CCCCCCCCCCC)OC(=O)CCCCCCCCCCC` (centres unmarked) [RC-544]?
T cell proliferation / DC activation, CPM 3H-thymidine response (in words) [1]: highest levels of DC activation compared to MPL® immunostimulant; IL-2 secretion (in words) ([2]; DCs prestimulated 15 hours, all T cell:APC ratios, FIG. 1): comparable in their ability to stimulate IL-2 secretion; IL-12 (p70) in DC+D011.10 co-cultures (in words) ([2]; FIG. 5): overall weaker in their effect than LPS and RC-527; IL-12 (p70) at T cell:APC ratio 16:1 (in words) ([2]; FIG. 6): substantially higher stimulation effect than that induced by RC-529; release of IL-12 (p40) homodimer in DC+D011.10 co-cultures (in words) ([2]; FIG. 7): weaker in their effect than LPS and RC-527; IL-12 p40 ([3]; Exp. # 091698, LPS 10 ng/ml, others 100 ng/ml): 42,500 pg/mL/5 × 10^5 Cells; IL-12 p70 ([3]; Exp. # 092398 (second line, Day7), LPS 10 ng/ml, others 100 ng/ml): 175.2 pg/ml/5 × 10^5 Cells; IL-12 p40 [3, 5]: 80,500 pg/mL/5 × 10^5 Cells; TNF-α [3, 5]: 5.650 pg/mL/5 × 10^5 Cells; IL-12 p70 ([3]; Exp. # 092398 as printed (first line of section), LPS 10 ng/ml, others 100 ng/ml): 8.8 pg/ml/5 × 10^5 Cells; IL-12 p70 ([3]; Exp. # 092398 as printed (third line of section), LPS 10 ng/ml, others 100 ng/ml): 55.7 pg/ml/5 × 10^5 Cells; IL-12 p40 [3, 6]: 62,000 pg/mL/5 × 10^5 Cells; TNF-α [3, 6]: 880 pg/mL/5 × 10^5 Cells; IL-12 (p40) expression (in words) ([3]; all three experiments, LPS 10 ng/ml, others 100 ng/ml): also stimulated IL-12 (p40) responses; IL-12 (p70) (in words) ([3]; the one donor in which LPS and MPL-S gave a significant amount): high levels of IL-12 (p70); TNF-α secretion (in words) ([3]; three donors): moderately lower than the effect due to RC-527; CD 1a % positive cells [4, 7]: 11.6%; CD 1a MFI [4, 7]: 7.38; CD 4 % positive cells [4, 7]: 70.6%; CD 4 MFI [4, 7]: 2.17; CD 14 % positive cells [4, 7]: 7.6%; CD 35 % positive cells [4, 7]: 52.5%; CD 35 MFI [4, 7]: 2.85; CD 40 MFI [4, 7]: 31.8; CD 44 MFI [4, 7]: 242; CD 54 MFI [4, 7]: 26.1; CD 62 L % positive cells [4, 7]: 11.6%; CD 69 % positive cells [4, 7]: 10.8%; CD 80 % positive cells [4, 7]: 99.2%; CD 80 MFI [4, 7]: 5.99; CD 83 % positive cells [4, 7]: 94.3%; CD 83 MFI [4, 7]: 2.72; CD 86 % positive cells [4, 7]: 99.7%; CD 86 MFI [4, 7]: 15.3; CD 95 % positive cells [4, 7]: 86.0%; CD 95 MFI [4, 7]: 1.31; HLA-DR MFI ([4]; Exp. 091698, LPS 10 ng/ml, others 100 ng/ml): 544-S 60.8; CD 1a % positive cells [4, 8]: 75.6%; CD 1a MFI [4, 8]: 4.44; CD 4 % positive cells [4, 8]: 75.7%; CD 4 MFI [4, 8]: 2.80; CD 14 % positive cells [4, 8]: 5.0%; CD 35 % positive cells [4, 8]: 59.1%; CD 35 MFI [4, 8]: 2.98; CD 40 MFI [4, 8]: 33.7; CD 54 MFI [4, 8]: 32.7; CD 62 L % positive cells [4, 8]: 7.1%; CD 69 % positive cells [4, 8]: 10.1%; CD 80 % positive cells [4, 8]: 99.1%; CD 80 MFI [4, 8]: 7.56; CD 83 % positive cells [4, 8]: 97.1%; CD 83 MFI [4, 8]: 3.52; CD 86 % positive cells [4, 8]: 99.9%; CD 86 MFI [4, 8]: 26.4; CD 95 % positive cells [4, 8]: 90.6%; CD 95 MFI [4, 8]: 1.40; αC5aR + GAR Alexa % positive cells [4, 8]: 45.9%; CD 44 MFI ([4]; Exp. 092398, 24 h, LPS 10 ng/ml, others 100 ng/ml, values printed with a trailing +): 426+; GAR-Alexa % positive cells ([4]; Exp. 092398, 24 h, secondary reagent staining, LPS 10 ng/ml, others 100 ng/ml): 3.9%; HLA-DR MFI ([4]; Exp. 092398, LPS 10 ng/ml, others 100 ng/ml): 155.2; CCR 6 % positive cells [4, 9]: 5.8%; CD 1a % positive cells [4, 9]: 78.1%; CD 1a MFI [4, 9]: 6.06; CD 3 % positive cells [4, 9]: 26.8%; CD 3 MFI [4, 9]: 3.86; CD 4 % positive cells [4, 9]: 79.4%; CD 4 MFI [4, 9]: 3.11; CD 11c % positive cells [4, 9]: 91.0%; CD 11c MFI [4, 9]: 6.23; CD 14 % positive cells [4, 9]: 4.1%; CD 40 MFI [4, 9]: 30.4; CD 54 MFI [4, 9]: 36.8; CD 62 L % positive cells [4, 9]: 4.0%; CD 80 % positive cells [4, 9]: 99.0%; CD 80 MFI [4, 9]: 10.9; CD 83 % positive cells [4, 9]: 92.5%; CD 83 MFI [4, 9]: 3.43; CD 86 % positive cells [4, 9]: 99.8%; CD 86 MFI [4, 9]: 26.3; CD 123 % positive cells [4, 9]: 48.0%; CD 123 MFI [4, 9]: 1.85; αC5aR + Alexa 488 % positive cells [4, 9]: 43.3%; αC5aR + Alexa 488 MFI [4, 9]: 9.41; HLA-DR MFI ([4]; Exp. 093098, LPS 10 ng/ml, others 100 ng/ml): 134.3; stimulating the expression of HLA-DR and co-stimulatory molecules (in words) ([4]; RC-529 compared with RC-544, three experiments): very comparable effects; CD40 and CD83 expression (in words) ([4]; RC-544 compared with RC-529): slightly higher levels of CD40 and CD83 expression than did RC-529
